According to patent US11344510B2, “Arylcyclohexylamine derivatives and their use in the treatment of psychiatric disorders” (Gilgamesh Pharmaceuticals, Inc., priority 2019, dated 2022):
“Also recorded” adds a separate entry of the source. Where a name gives a salt, the structure may show the parent alone. Read-outs that look alike come from different tables or passages of the source.

What was measured:
[1] = molecular target: MK-801 binding site of the N-methyl-D-aspartate receptor (NMDAR); assay: NMDAR radioligand binding with [3H]MK-801, Method A; parameters: species or system Wistar rat; details: MK-801 site, Method A, Wistar rat brain (minus cerebellum), 5.0 nM [3H]MK-801; read-out: NMDAR Ki ± SEM
Procedure: Radioligand Binding—Method A. Affinity of the test compounds for NMDAR was determined in radioligand binding experiments with [^3H]MK-801 by Eurofins Panlabs, Inc., using methods adapted from the literature (Javitt et al. 1987; Reynolds et al. 1989) and under the conditions described in Table 12.

[2] = tested on: mice (forced swim test); assay: Forced swim test in mice, 2-h pre-treatment; type: in vivo, CD-1 mice; details: s.c.
Procedure: Animals. Male CD-1 mice, aged ˜8 weeks (body weight ˜25-30 g), were used in the experiments. Animals were singly housed under controlled temperatures and 12-hour light/dark cycles, with ad libitum food and water. These studies were carried out in strict accordance with the recommendations in the European Convention for the Protection of Vertebrate Animals Used for Experimental and Other Scientific Purposes. All efforts were made to minimize suffering.
Drugs and Drug Administration. Imipramine hydrochloride was administered intraperitoneally (i.p.) at a dose of 20 mg/kg. Other compounds were tested as the racemates (indicated by “rac” nomenclature) and were administered subcutaneously (s.c.) with doses calculated based on the freebase. Normal saline was used as the vehicle and all compounds were administered at a volume of 5 mL/kg, 2 h before behavioral testing.
Forced Swim Test (FST). Group size was n=10 per treatment, except for vehicle and rac-ketamine groups, which represented n=20 per treatment. Mice were placed individually in a glass cylinder measuring 19 cm wide by 30 cm tall and filled with 24° C. water to a depth of 18 cm. The activity of each mouse was video recorded during each 6-minute session and total immobility time was scored during the last 4 minutes of the session. The water was changed between each mouse to avoid any influence on behavior.
Statistical Analysis. […]

[3] = Oral bioavailability in rats, Method A; type: in vivo; details: plasma, Sprague Dawley rats
Procedure: Animals. Male Sprague Dawley rats were used in these studies Animals were randomly assigned to treatment groups and were fasted overnight before oral dosing.
Drugs. The test compound was dissolved in normal saline and administered intravenously (iv) or orally (po) at a dose of 10 mg/kg (calculated based on freebase) and at a volume of 5 mL/kg body weight. The compound was tested as the racemate (indicated by “rac” nomenclature).
Sample Collection and Bioanalysis. Blood samples were collected through external jugular vein (via cannulation) at 0.083, 0.25, 0.5, 1, 2, 4, 8 and 24 h post-dose (total 8 time points/rat, 4 rats per administration route). At each time point, ˜0.2 mL of blood was withdrawn and transferred into a pre-labeled 0.5 mL of micro centrifuge tube containing 4 μL of 200 mM K2EDTA solution as anticoagulant and mixed gently by inverting the tube to facilitate mixing of anticoagulant with the blood. Blood samples were kept on ice until centrifugation. The collected blood samples were centrifuged at 4000 rpm for 10 min at 4° C. Plasma samples were separated after centrifugation, transferred into pre-labeled tubes, and stored at −70° C. until bioanalysis. For bio analysis, 50 μL aliquots of plasma study samples or calibration standards were added to pre-labeled eppendorf tubes and 10 μL of an internal standard solution (diclofenac, 5 μg/mL in 50:50 v/v methanol:water) was added. Samples were quenched with 500 μL of precipitation solution (0.1% v/v formic acid in acetonitrile) and vortexed. All the samples were centrifuged at 14,000 rpm for 10 minutes at 4° C. Following centrifugation, 5 μL of each clear supernatant was analyzed with a fit-for-purpose LC-MS/MS method, with authentic samples of the analyte used for calibration and identification.
Data Analysis. Pharmacokinetic parameters were estimated using the non-compartmental analysis tool of Phoenix® WinNonlin software (Ver 8.1). The drug concentrations of samples below the lower limit of quantitation (LLOQ) were designated as zero.

[4] = Formation of metabolites 11R/11S in RLM (High Activity conditions); type: in vitro ADME, Sprague Dawley rats; details: LC-MS/MS
Procedure: RLM Stability (High Activity). Pooled RLM from male Sprague Dawley rats (XenoTech R1000, lot #1910100) were used. Microsomal incubations were carried out in 96-well plates in 5 aliquots of 40 μL each (one for each time point). Liver microsomal incubation medium consisted of PBS (100 mM, pH 7.4), MgCl2 (3.3 mM), NADPH (3 mM), glucose-6-phosphate (5.3 mM), and glucose-6-phosphate dehydrogenase (0.67 units/mL), with 1.0 mg of liver microsomal protein per mL. Control incubations were performed by replacing the NADPH-cofactor system with PBS. Test compounds (1 μM, final solvent concentration 1.6%) were incubated with microsomes at 37° C., shaking at 100 rpm. Incubations were performed in duplicate. Five time points over 60 minutes were analyzed. […] Supernatants were analyzed for parent compound remaining using a fit-for-purpose liquid chromatography-tandem mass spectrometry (LC-MS/MS) method, with authentic samples of each analyte used for identity confirmation.
This condition was also used for experiments measuring the formation of metabolite 11R from compounds 14R and 88R and formation of metabolite 11S from compounds 14S and 88S. The concentrations of 11R and 11S formed during the incubations were quantified using a fit-for-purpose liquid chromatography-tandem mass spectrometry (LC-MS/MS) method, with authentic samples of each analyte used for calibration and identity confirmation.

CNC1(c2ccccc2)CCCCC1=O (racemic) [Compound 14rac, 2-(methylamino)-2-phenylcyclohexan-1-one hydrochloride]
Ki [1]: 760 nM | immobility time in FST ([2]; 2 h before test, last 4 minutes, relative to vehicle, hydrochloride): reduced time immobile; also recorded: induced antidepressant-like effects | potency at reducing immobility relative to rac-ketamine ([2]; 2 h pre-treatment): at least 30 fold

CNC1(c2ccccc2Cl)CCCCC1=O (racemic) [rac-ketamine, racemic ketamine, reference compound]
AUC(0-t) ([3]; male, rat, 10 mg/kg iv, read-out: AUC0-last (iv) (converted)): 1340 ng·h/mL | half-life ([3]; male, rat, 10 mg/kg iv, read-out: t1/2 (iv)): 41.6 min | Cmax ([3]; male, rat, 10 mg/kg po): 190 ng/mL | AUC(0-t) ([3]; male, rat, 10 mg/kg po, read-out: AUC0-last (po) (converted)): 121 ng·h/mL | half-life ([3]; male, rat, 10 mg/kg po, read-out: t1/2 (po)): 33.7 min | F ([3]; 10 mg/kg): 9%

[2H]C([2H])([2H])N[C@@]1(c2ccccc2)CCCCC1=O [Compound 88R, (R)-2-((methyl-d3)amino)-2-phenylcyclohexan-1-one]
formation of metabolites 11R and 11S compared to non-deuterated counterparts [4]: attenuated formation; also recorded: decreased formation
